Measurements from US20050009030A1, “Histone deacetylase: novel molecular target of neurotoxicity” (priority 2002, published 2005).

Tested on: rat cerebellar granule cells
Assay: Excitotoxicity in rat cerebellar granule cells induced by NMDA/serine or kainate, measured by MTT test
Format: cell-based
Conditions: excitotoxicity induced by 100 μM NMDA and 10 μM serine, or by 50 μM kainate; 30 to 40% toxicity by MTT tests
Description: For this example, rat cerebellar granule cells were placed in culture, according to techniques known to those skilled in the art. Excitotoxicity was induced in these cells by two types of treatment: firstly, by the joint administration of 100 μM NMDA (N-Methyl-D-aspartic acid) and 10 μM serine, and secondly by administration of 50 μM kainate. Under the experimental conditions adopted, 30 to 40% toxicity was observed and measured using MTT tests, known to those skilled in the art.

## CC(/C=C/C(=O)NO)=C\[C@@H](C)C(=O)c1ccc(N(C)C)cc1 [trichostatin A]
  Inhibition of excitotoxicity: Inhibition of excitotoxicity can be demonstrated
